Data on 14 compounds can be found in ChEMBL document CHEMBL3286248, “Easily accessible polycyclic amines that inhibit the wild-type and amantadine-resistant mutants of the M2 channel of influenza A virus” (J Med Chem, 2014).

Usually pEC50 stands for the negative decadic logarithm of the EC50, by convention in mol/L.

pEC50: −log10 of the molar value. Counter-ions that a name gives are not always drawn. Activity calls are given as the source filed them. The calls are words filed in the database; no cut-off is given here.

Test [1] has as its system Matrix protein 2 (Influenza A virus (A/Udorn/307/1972(H3N2))), P0DOF8 [V27A]. Particulars: Influenza A virus (A/udorn/1972(H3N2)).
For test [2], the system named is Influenza A virus. Particulars: mdck.
In test [3] the test system is Influenza A virus. Particulars: mdck. This is another data set of the same source.
The test system of test [4] is MDCK. Type of test: functional, cell-based. Particulars: Influenza A virus (A/Hong Kong/7/1987(H3N2)), 0.5 to 2 uM.
Test [5] deals with MDCK. Put plainly: Antiviral activity against Influenza A virus (A/HK/7/87(H3N2)) harboring wild type M2 channel infected in MDCK cells assessed as reduction in plaque number at 0.5 uM after 72 hrs by crystal violet staining. Type of test: functional, cell-based. Particulars: Influenza A virus (A/Hong Kong/7/1987(H3N2)).
In test [6] the test system is MDCK. Put plainly: Antiviral activity against Influenza A virus (A/HK/7/87(H3N2)) harboring wild type M2 channel infected in MDCK cells assessed as reduction in plaque size at 0.5 uM after 72 hrs by crystal violet staining. Type of test: functional, cell-based. Particulars: Influenza A virus (A/Hong Kong/7/1987(H3N2)).

`C1CC(N2CC3C4CCC(C5CC45)C3C2)CCN1` (stereo unspecified): in test [1], the inhibition result is “inactive”. The pEC50 in the test with Influenza A virus [2] and in the test with Influenza A virus [3] was under 4.00 in each case.
Take `CC(N)C12CC3CC(CC(C3)C1)C2` (stereo unspecified) [RIMANTADINE HYDROCHLORIDE]: the pEC50 is 5.12 in the test on Influenza A virus [2] and 5.29 in the test on Influenza A virus [3].
As to `N=C(N)N1CC2C3C=CC(C4C=CC43)C2C1` (stereo unspecified), the inhibition result in the test with MDCK [4] was “Active”. The negative-log EC50 (pEC50) in the test on Influenza A virus [2] and with Influenza A virus [3] was under 4.00 each time.
Regarding `N=C(N)N1CC2C3C=CC(C4CC34)C2C1` (stereo unspecified), the pEC50 in the test on Influenza A virus [2] and in the test on Influenza A virus [3] was under 4.00 each time.
`N=C(N)N1CC2C3CCC(C4CCC43)C2C1` (stereo unspecified): the result in the test with MDCK [5] and with MDCK [6] was Active. The pEC50 with Influenza A virus [2] and in the test with Influenza A virus [3] was under 4.00 in each case.
`CC12CC34CNCC35CC1(C)C(C)(C5)C2(C)C4` (stereo unspecified): in the test on MDCK [4], the inhibition result is “Active”. Further, the pEC50 in the test with Influenza A virus [2] was 5.74; in the test on Influenza A virus [3], 5.52.
Regarding `CC12CC34CN(C(=N)N)CC35CC1(C)C(C)(C5)C2(C)C4` (stereo unspecified), the pEC50 with Influenza A virus [2] and with Influenza A virus [3] was under 4.00 throughout.
For the compound `C1=CC2C3CNCC3C1C1CC21` (stereo unspecified), the pEC50 with Influenza A virus [2] and with Influenza A virus [3] was under 4.00 each time.
As for `NC12CC3CC(CC(C3)C1)C2` [AMANTADINE], the pEC50 with Influenza A virus [2] is 4.52.
As for `C1=CC2C1C1C=CC2C2CNCC12` (stereo unspecified), in the test with MDCK [4], the inhibition entry was “Active”. The pEC50 in the test on Influenza A virus [2] was 5.89; with Influenza A virus [3], over 6.10.
As to `N=C(N)N1CC2C3CCC(C4CC34)C2C1` (stereo unspecified), the pEC50 in the test with Influenza A virus [2] and in the test on Influenza A virus [3] was under 4.00 throughout.
Turning to `C1=CC2C3CC3C1C1CN(C3CCNCC3)CC21` (stereo unspecified), the inhibition result in test [1] was “inactive”. Besides, the pEC50 in the test with Influenza A virus [2] was at least 6.10; in the test on Influenza A virus [3], over 6.10.
Take `C1CC2C1C1CCC2C2CNCC12` (stereo unspecified): the result with MDCK [5] and in the test on MDCK [6] was Active. Further, the pEC50 with Influenza A virus [2] and in the test on Influenza A virus [3] was under 4.00 in each case.
On to `C1CC2C3CNCC3C1C1CC21` (stereo unspecified), for which the pEC50 in the test with Influenza A virus [2] and with Influenza A virus [3] was under 4.00 in each case.
